Data on two substances can be found in US4747845A, “Synthetic resin matrix system for the extended delivery of drugs” (priority 1986, dated 1988).

For data set [1] the following is noted: dog, in vivo.
Experimental: The derived pharmacokinetic parameters included: 1, time for the maximum concentration to be reduced by 1/2 (t-1/2); 2, area under the plasma concentration curve (AUC); 3, maximum plasma concentration (C-max); 4, time to reach C-max (t-max); 5, mean resident time (MRT); and 6, percent of recovery of administered H3 dose in urine in 72 hours (U%).
Here, determination was made of the release characteristics of the DIMAC synthetic resin matrix system embodied with the drug urapidil fumerate (UPD) following oral administration to conscious dogs, in an identical procedure to that described in EXAMPLE 4.
The UPD dose administered in DIMAC matrix was 10 mg/kg, and the same dose was used in the control solution.
For data set [2] the following is noted: dog, in vivo, po.
Experimental: Approximately 75 uCi of isotopically labelled DTZ or UPD was blended into their respective slurry prior to filling the gelatin capsule. The isotopically labelled compositions were allowed to set-up prior to rejoining the filled upper and lower capsule compartments. Curing proceeded overnight, with animal dosing performed at 8:00 a.m. the following morning. The control DIMAC matrix samples without drug were prepared in an identical manner.
Six conscious dogs, three males and three females, one of each sex in three treatment groups were used in this study. The oral dose of DTZ was 30 mg/kg, while that for UPD was 10 mg/kg.
Blood samples were drawn at 0-time immediately prior to dosing, and at 0.5, 1.0, 2.0, 4.0, 6.0, 8.0, 24, and 32 hours after oral administration of the three test preprations. One ml of plasma, suitably prepared was counted for 5-minutes for level of radioactivity (dpm).

Turning to urapidil fumerate [DIMAC matrix UPD], in data set [1], the “magnitude of delayed and extended duration release indices compared with EXAMPLE 3” value is “far less”; the “percent change of t1/2 of DIMAC from solution control” value is “+40%”; the “statistical significance of change over solution control” value is “statistically significant change in C-max, t-max, MRT, and t-1/2”. The “percent change of U % (recovery of administered dose in urine in 72 hours) of DIMAC from solution control” value in data set [1] (4320 min) is “+8%”.

In the case of urapidil fumerate [UPD], in data set [2], the “percent of dose released from DIMAC matrix during the 8-hour period” value is recorded as “at least 50%”. The “time of peak plasma radioactivity” value in data set [2] (10 mg/kg) was determined as 2 h.
